{"source": "patent US5994374A", "about": "“Substituted 1-indolylpropyl-4-benzyl-tetrahydropyridine derivatives” (Merck Sharp & Dohme Ltd., priority 1995, dated 1999)", "origin": "cited, not measured here", "system": "human 5-HT1Dα and 5-HT1Dβ receptor subtypes", "settings": "cf. WO-A-91/17174, Table 1", "data": [{"smiles": "CNS(=O)(=O)Cc1ccc2[nH]cc(CCN(C)C)c2c1", "note": "[sumatriptan]", "values": [{"measurement": "discrimination between the human 5-HT1Dα and 5-HT1Dβ receptor subtypes", "result": "barely discriminates"}]}]}
